# According to patent publication US20130142882A1, “METHODS AND COMPOSITIONS FOR TREATMENT, MODIFICATION AND MANAGEMENT OF BONE CANCER PAIN” (GOLDEN BIOTECHNOLOGY CORPORATION, priority 2011, published 2013):
# System: rat model of bone cancer pain (Walker 256 rat mammary gland carcinoma cells injected into the right tibia)
# Assay: Mechanical allodynia (Von Frey test) in a rat model of bone cancer pain
# Format: in vivo, Rat (Sprague-Dawley)
# Conditions: 30 μg/kg s.c. every second day
# Procedure: The objective of this study was to assess the potential anti-nociceptive and anti-tumourigenic effects of Compound 1, at doses of 15, 30 and 45 mg/kg, in an animal model of bone cancer pain. Metastasis of cancer cells to the bone was modeled by injecting Walker 256 rat mammary gland carcinoma cells into the medullary cavity of the right tibia (Mao-Yinga, et al. A rat model of bone cancer pain induced by intra-tibia inoculation of Walker 256 mammary gland carcinoma cells. Biochem Biophys Res Commun 2006; 345: 1292-1298). The development of mechanical allodynia was monitored using an established behavioural test (Von Frey test). Treatment administration was chronic, from the day of surgery, and administered twice daily for 21 days to determine whether there was a prophylactic effect on the development of mechanical allodynia. Zoledronic acid was used as a reference substance. No regulatory test guidelines were applicable to this study.
# Rats have been studied in this model of bone cancer pain. The route of administration of Compound 1 and vehicle was oral. The doses of Compound 1 were 15, 30 and 45 mg/kg, twice a day (approximately 10 h apart) for 21 days.
# The dose of zoledronic acid was 30 μg/kg, as a single administration, every second day from the day of surgery, based on historical data. The route of administration of zoledronic acid was subcutaneous.
# The dose volume for test substance and vehicle treatments was 5 mL/kg. The vehicle for Compound 1 was corn oil. Each rat allocated to test substance or vehicle treatments received an oral dose, by gavage, twice daily (approximately 8 am and 6 pm) for 21 consecutive days. The dose volume for the reference substance treatment was 1 mL/kg. Each rat allocated to reference substance treatment received a single subcutaneous dose, by injection (approximately 8 am) every second day from the day of surgery.
# Cell preparation. Walker 256 rat mammary gland carcinoma cells (obtained from the American Type Culture Collection (ATCC)) were harvested from sub-confluent cultures growing in vitro and the number of viable cells determined. Cells were then re-suspended in sterile phosphate buffered saline (PBS) at a concentration of 4×10^5 cells. Female Sprague-Dawley rats were intratibially injected in the right leg with 4×10^5 Walker 256 rat mammary gland carcinoma cells in a volume of 6 μL as detailed in Surgical procedure below.
# Baseline behavioural testing. The rats were moved to the procedure room 5 days prior to behavioural testing. The rats were then housed, dosed and observed in the procedure room. The behavioural test was performed on all rats on 2 separate occasions prior to surgery, to establish baseline values. Pre-surgery baseline values were taken as the data from the final (second) day of testing (the data from the first day of testing was not included but classed as part of the acclimatisation).
# Mechanical allodynia (Von Frey test): Each animal was placed in a wire mesh cage and a series of Von Frey filaments were applied to the plantar surface of the hind paw, from below. The filaments were applied in ascending order (starting with the weakest force), and the withdrawal threshold for both the left and right hind paws were evaluated. Each filament was indented on the mid-plantar surface of the foot to the point where it just started to bend; this was repeated approximately 8 to 10 times per filament at a frequency of approximately 1 Hz. The withdrawal threshold was defined as the lowest force of two or more consecutive Von Frey filaments to elicit a reflex withdrawal response (i.e. a brief paw flick).
# Surgical procedure. The animals were surgically prepared over 2 days. Each rat was anaesthetised as necessary with isofluorane in […]. The surface around the incision site was shaved and sterilised. Under aseptic conditions, an incision was made in the skin over the top of the right tibia to expose the tibia head with minimal damage. […]
smiles,measurement,setting,value
"O=P(O)(O)C(O)(Cn1ccnc1)P(=O)(O)O [Zoledronic acid, reference compound]",Withdrawal Threshold (Log 10 (force (g) × 10 000)) on Day Post-Operative,"Day 6, left paw",5.35 Log 10 (force (g) × 10 000)
same,Withdrawal threshold (g) on day post-operative,"Day 6, left paw",22.55 g
same,Withdrawal Threshold (Log 10 (force (g) × 10 000)) on Day Post-Operative,"Day 6, right paw",5.28 Log 10 (force (g) × 10 000)
same,Withdrawal threshold (g) on day post-operative,"Day 6, right paw",19.49 g
same,Withdrawal Threshold (Log 10 (force (g) × 10 000)) on Day Post-Operative,"Day 12, left paw",5.17 Log 10 (force (g) × 10 000)
same,Withdrawal threshold (g) on day post-operative,"Day 12, left paw",15.14 g
same,Withdrawal Threshold (Log 10 (force (g) × 10 000)) on Day Post-Operative,"Day 12, right paw",4.98 Log 10 (force (g) × 10 000)
same,Withdrawal threshold (g) on day post-operative,"Day 12, right paw",9.95 g
same,Withdrawal Threshold (Log 10 (force (g) × 10 000)) on Day Post-Operative,"Day 14, left paw",5.15 Log 10 (force (g) × 10 000)
same,Withdrawal threshold (g) on day post-operative,"Day 14, left paw",15.02 g
same,Withdrawal Threshold (Log 10 (force (g) × 10 000)) on Day Post-Operative,"Day 14, right paw",4.99 Log 10 (force (g) × 10 000)
same,Withdrawal threshold (g) on day post-operative,"Day 14, right paw",10.28 g
same,Withdrawal Threshold (Log 10 (force (g) × 10 000)) on Day Post-Operative,"Day 19, left paw",5.14 Log 10 (force (g) × 10 000)
same,Withdrawal threshold (g) on day post-operative,"Day 19, left paw",14.66 g
same,Withdrawal Threshold (Log 10 (force (g) × 10 000)) on Day Post-Operative,"Day 19, right paw",4.97 Log 10 (force (g) × 10 000)
same,Withdrawal threshold (g) on day post-operative,"Day 19, right paw",10.37 g
same,Withdrawal Threshold (Log 10 (force (g) × 10 000)) on Day Post-Operative,"Day 21, left paw",5.15 Log 10 (force (g) × 10 000)
same,Withdrawal threshold (g) on day post-operative,"Day 21, left paw",15.46 g
same,Withdrawal threshold (g) on day post-operative,"Day 21, left paw, listed as zoledronic acid",15.46 ± 2.06 g
same,Withdrawal Threshold (Log 10 (force (g) × 10 000)) on Day Post-Operative,"Day 21, right paw",5.04 Log 10 (force (g) × 10 000)
same,Withdrawal threshold (g) on day post-operative,"Day 21, right paw",13.25 g
same,Withdrawal threshold (g) on day post-operative,"Day 21, right paw, listed as zoledronic acid",13.25 ± 2.28 g
same,Withdrawal Threshold (Log 10 (force (g) × 10 000)) on Day Post-Operative,"Pre-Surgery, left paw",5.32 Log 10 (force (g) × 10 000)
same,Withdrawal threshold (g) on day post-operative,"Pre-Surgery, left paw",21.02 g
same,Withdrawal Threshold (Log 10 (force (g) × 10 000)) on Day Post-Operative,"Pre-Surgery, right paw",5.30 Log 10 (force (g) × 10 000)
same,Withdrawal threshold (g) on day post-operative,"Pre-Surgery, right paw",20.26 g
